The target of assay [1] is T1, human renin (Homo sapiens, UniProt P00797).
T1 construct: purchased National Institute for Biological Standards, London
T1 sequence (P00797 67-406): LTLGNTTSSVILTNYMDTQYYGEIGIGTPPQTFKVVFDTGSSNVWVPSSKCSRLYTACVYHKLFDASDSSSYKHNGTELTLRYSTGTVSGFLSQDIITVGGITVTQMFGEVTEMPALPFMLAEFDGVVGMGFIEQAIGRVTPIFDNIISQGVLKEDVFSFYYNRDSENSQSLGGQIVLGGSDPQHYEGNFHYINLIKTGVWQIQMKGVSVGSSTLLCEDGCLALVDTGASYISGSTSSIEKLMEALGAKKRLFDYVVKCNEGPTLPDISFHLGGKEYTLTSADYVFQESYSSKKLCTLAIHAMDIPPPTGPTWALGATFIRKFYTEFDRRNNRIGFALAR
In words: Human Renin Inhibition in vitro (angiotensin I produced, by radioimmunoassay). Conditions: pH 7.4, 37° C., two hours, human plasma. The assay is classed as biochemical. As for the experimental part:
Compounds of Formula I were evaluated as inhibitors of human renin in an in Vitro assay, as follows: This human renin inhibition test has been previously described in detail [Papaioannou et al., Clinical and Experimental Hypertension, A7(9), 1243-1257 (1985)]. Human renin was obtained from the National Institute for Biological Standards, London. An incubation mixture was prepared containing the following components: in a total volume of 0.25 mL: 100 mM Tris-acetate buffer at pH 7.4, 25×10^-6 Goldblatt units of renin, 0.05 mL of plasma from human volunteers taking oral contraceptives, 6.0 mM Na-EDTA, 2.4 mM phenylmethyl sulfonyl fluoride, 1.5 mM 8-hydroxyquinoline, 0.4 mg/mL bovine serum albumin (BSA), and 0.024 mg/mL neomycin sulfate. This mixture was incubated for two hours at 37° C. in the presence or absence of renin inhibitors. The produced angiotensin I was determined by radioimmunoassay (New England Nuclear kit). Test compounds to be assayed were dissolved in DMSO and diluted with 100 mM Tris-acetate buffer at pH 7.4 containing 0.5% BSA to the appropriate concentration. The final concentration of organic solvent in the reaction mixture was less than 1%. Control incubations at 37° C. were used to correct for effects of organic solvent on renin activity.

Assay [2] relates to renin. Conditions: cited from earlier work.
Assay [3] relates to pepsin. Conditions: cited from earlier work.
Assay [4] concerns cathepsin D. Conditions: cited from earlier work.
The test system of assay [5] is hog renin. To be noted: after injection of hog renin into nephrectomized rats; cited from earlier work.

Non-standard residues stand in square brackets, D forms with d. Residues, ends and D or L forms follow the SMILES beside them. *: point of attachment. Sta = CC(C)C[C@H](N)[C@@H](O)CC(=O)O; Isovaleryl = CC(C)CC(=O)*

As to `C#CC[C@H](NC(=O)[C@@H](CC(=O)N(C)CCN1CCOCC1)Cc1ccccc1)C(=O)N[C@@H](CC1CCCCC1)[C@@H](O)[C@@H](O)CC(C)C` [Example 1, N^1-[1R*-[[[1S,1R*-(cyclohexylmethyl)-2S*,3R* -dihydroxy-5-methylhexyl]amino]carbonyl]-3-butynyl]-N^4-methyl-N^4-[2-(4-morpholinyl)ethyl]-2S*-(phenylmethyl)butanediamide], the IC50 – broadly, the concentration that inhibits the measured activity by half – in assay [1] is 1 nM.

Consider `CC(C)CC(=O)N[C@H](C(=O)N[C@H](C(=O)N[C@@H](CC(C)C)[C@@H](O)CC(=O)N[C@@H](C)C(=O)N[C@@H](CC(C)C)[C@@H](O)CC(=O)O)C(C)C)C(C)C` [pepstatin] (Isovaleryl-VV[Sta]A[Sta]-OH), for which, in assay [2], the inhibitor of renin entry was “inhibitor”. Further, in assay [3], the inhibitor of pepsin result is given as “inhibitor”. In addition, the “inhibitor of cathepsin D” value in assay [4] is recorded as “inhibitor”. Also, the blood pressure entry in assay [5] was “reduce blood pressure in vivo”.

(Values after patent US5422349A, “Morpholino-oxazinyl-terminated alkylamino ethynyl alanine amino diol compounds for treatment of hypertension” (G. D. Seale & Co., priority 1992, dated 1995).)
